Measured values reported in US20130101628A1 (NORTHWESTERN UNIVERSITY, priority 2011, published 2013).
* marks the point of attachment. Palmitoyl = CCCCCCCCCCCCCCCC(=O)*

Experiments:
[1] = target: T1, VEGF receptor 1 (VEGFR1 or Flt-1) (Homo sapiens, UniProt P17948); assay: Sandwich ELISA of phosphorylated VEGFR1 in lysates of stimulated HUVEC; format: cell-based; conditions: HUVEC time-course 0-60 minutes; falls below untreated baseline
T1 construct: host or cells: HUVEC
Description: (§1) Human umbilical vein endothelial cells (HUVECs) and complete endothelial cell growth media (EGM) were purchased (Genlantis, San Diego, Calif.), passaged two times following receipt, and cryo-preserved in media with 5% DMSO. Cells were thawed as needed and grown to confluence in a […] flasks (VWR Falcon) prior to plating for experiments.
(§2) Phosphorylation of both VEGFRI and VEGFR2 was assayed using commercially available assay kit (R&D Systems, Minneapolis, Minn.) following the recommended protocol. First, confluent HUVECs plated in 24 well plates were starved for 5 hours in serum-free defined media (SFDM, Genlantis) specifically designed to maintain cells in a growth factor-free setting for growth factor signaling and metabolic assays. Following starvation, the various treatments were dissolved in SFDM to a concentration of 1 μM. […] Cells were exposed to treatment for 2 minutes. To evaluate the time-course of phosphorylation the same protocol was followed and cells were exposed to VEGF-PA for 0, 1, 3, 5, 10, 15, 20, 25, 30, 40, 50, and 60 minutes.

[2] = target: T2, VEGF receptor 2 (VEGFR2 or KDR) (Homo sapiens, UniProt P35968); assay: Sandwich ELISA of phosphorylated VEGFR2 in lysates of stimulated HUVEC; format: cell-based
T2 construct: host or cells: HUVEC
Description: as §1, §2

HUVECs [3] = assay: HUVEC proliferation (CyQUANT-NF cell number); format: cell-based, human; conditions: 1 μM in EGM, 48 hours; untreated control 100.0%
Description: In vitro studies were performed using HUVECs, a primary endothelial cell that is VEGF-responsive and frequently used as a model endothelial cell for angiogenesis studies in vitro [31].
To evaluate proliferation, HUVECs were plated at 5000 per well in a 96 well plate. […] Additionally, unsupplemented growth media was used as a control. After 48 hours, cell number was quantified using CyQUANT-NF (Invitrogen) and a standard fluorescent microplate reader. Cell number is expressed relative to the group treated with unsupplemented growth media.

HUVECs [4] = assay: HUVEC migration scratch assay; format: cell-based, human; conditions: 1 μM in EBM with 0.5% FBS, 18 hours; untreated 25.2%
Description: To evaluate cell migration, endothelial basal media (EBM) without growth factors (Lonza) was supplemented with 0.5% FBS in order to prevent apoptosis but not promote significant migration or proliferation. Cells were grown to confluence in a 12 well plate and a 1 ml pipette tip was used to create a denuded scratch and the surface was washed twice with PBS to remove detached cells. The average scratch width at the initial time-point was […] Markings were placed on the underside of the plate to ensure the same region of the scratch was recorded in each image. […] The total pixel area of the scratch at the initial time-point was recorded using ImageJ analysis software, and the percent migration was determined from the reduction in denuded area at 18 hours.

ischemic hind-limb = assay: Murine hind-limb ischemia (HLI) model; format: in vivo, mice; conditions: for limb motor function score / tissue (limb) salvage score: single i.m. injection 25 μl of 2 mM; for limb motor function score: grade 1-5; for tissue (limb) salvage score: grade 1-6
Description: For the HLI procedure, eight week old male FVB wild-type mice (Charles River) were anesthetized by intraperitoneal injection of avertin (125 mg/kg). By means of a dissecting microscope, the femoral nerve was carefully separated from the vessel bundle. The right femoral artery was ligated and excised, including all superficial and deep branches. Critical limb ischemia was immediately verified by laser Doppler imaging (LDPI, MoorLDI-SIM, Moor Instruments, Ltd) to ensure the ratio (ischemic/non-ischemic limb) was ≦0.20. At postoperative day 3, outliers with low ischemia were triaged based on LDPI (ratio ischemic/nonischemic 0.30) as were outliers with extreme ischemia (necrotic demarcation of entire limb), determined by macroscopic evaluation. […] For follow-up, animals underwent reevaluations with LDPI at postoperative day 7, 14, and 28 before animals were sacrificed (CO, asphyxia) for tissue harvest at day 28. At each time-point, tissue perfusion was measured via LDPI, measuring blood flow in both the ischemic and non-ischemic limb and reporting results as the ratio of these two measurements. All LDPI measurements were taken on a 37° C. heating pad to control body temperature. In addition, motor function and tissue damage was semi-quantitatively assessed on post-operative day 7, 14, 21 and 28 by established scoring systems. Tissue damage in the ischemic limb (limb salvage score) was graded as full recovery (grade 6), minor necrosis or nail loss (grade 5), partial toe amputation (grade 4), total toe amputation (grade 3), partial/total foot amputation (grade 2) or partial/total limb amputation (grade 1) (modified from). Limb motor function was graded as unrestricted (grade 5), no active use of toe(s) or spreading (grade 4), restricted foot use (grade 3), no use of foot (grade 2) or no use of limb at all (grade 1) (modified from). Finally, walking capacity was measured via a Rota Rod apparatus. […] The mean of two assessments was used as for failure time for each animal. At day 28, muscle tissue from the ischemic limb was harvested, fixed in methanol, paraffin-embedded, and cross-sectioned (6-μm) for histological immunostaining. Briefly, sections were blocked with 10% donkey serum (30 min, RT). Primary antibodies were diluted in PBS containing BSA, and applied to tissue slices for 2 hrs at 37° C. Sections were stained for CD31, an endothelial-specific marker, using rat anti-CD31 antibodies (BD Pharmingen Inc) and smooth-muscle α-actin (αSMA), a vascular smooth muscle marker, using rabbit-anti-αSMA (Sigma-Aldrich Co.). For immunofluorescent detection, primary antibodies were resolved with Alexa-Fluor-conjugated secondary antibodies (Invitrogen Corporation, Carlsbad, Calif., USA dilution) and nuclei were counterstained with DAPI (Research Organics). Slides were imaged using fluorescent microscopy (Zeiss), and CD31+capillary forms and CD31+/sMA+]mature microvessels/arterioles were quantified in 3 separate high-power fields (20×) from 3 independent sections in each animal (9 images/animal). All error bars indicate the standard error of the mean. Differences between groups were determined using a one-way analysis of variance (ANOVA) with a Bonferroni multiple comparisons post-hoc test using GraphPad InStat v3.0b. […] VEGF-PA or control treatments were administered by an intramuscular injection three days following the induction of critical ischemia by ligation and excision of the right femoral artery and all superficial and deep branches, as described above. Animals were assessed serially throughout the study for motor function and limb salvage and Laser Doppler perfusion imaging (LDPI) was used to assess tissue perfusion. At the end of the study, exercise endurance was recorded on a Rota Rod treadmill and tissue was harvested for immunohistological staining of capillaries to observe effects on the microcirculation.

T2 sequence (P35968 20-1356): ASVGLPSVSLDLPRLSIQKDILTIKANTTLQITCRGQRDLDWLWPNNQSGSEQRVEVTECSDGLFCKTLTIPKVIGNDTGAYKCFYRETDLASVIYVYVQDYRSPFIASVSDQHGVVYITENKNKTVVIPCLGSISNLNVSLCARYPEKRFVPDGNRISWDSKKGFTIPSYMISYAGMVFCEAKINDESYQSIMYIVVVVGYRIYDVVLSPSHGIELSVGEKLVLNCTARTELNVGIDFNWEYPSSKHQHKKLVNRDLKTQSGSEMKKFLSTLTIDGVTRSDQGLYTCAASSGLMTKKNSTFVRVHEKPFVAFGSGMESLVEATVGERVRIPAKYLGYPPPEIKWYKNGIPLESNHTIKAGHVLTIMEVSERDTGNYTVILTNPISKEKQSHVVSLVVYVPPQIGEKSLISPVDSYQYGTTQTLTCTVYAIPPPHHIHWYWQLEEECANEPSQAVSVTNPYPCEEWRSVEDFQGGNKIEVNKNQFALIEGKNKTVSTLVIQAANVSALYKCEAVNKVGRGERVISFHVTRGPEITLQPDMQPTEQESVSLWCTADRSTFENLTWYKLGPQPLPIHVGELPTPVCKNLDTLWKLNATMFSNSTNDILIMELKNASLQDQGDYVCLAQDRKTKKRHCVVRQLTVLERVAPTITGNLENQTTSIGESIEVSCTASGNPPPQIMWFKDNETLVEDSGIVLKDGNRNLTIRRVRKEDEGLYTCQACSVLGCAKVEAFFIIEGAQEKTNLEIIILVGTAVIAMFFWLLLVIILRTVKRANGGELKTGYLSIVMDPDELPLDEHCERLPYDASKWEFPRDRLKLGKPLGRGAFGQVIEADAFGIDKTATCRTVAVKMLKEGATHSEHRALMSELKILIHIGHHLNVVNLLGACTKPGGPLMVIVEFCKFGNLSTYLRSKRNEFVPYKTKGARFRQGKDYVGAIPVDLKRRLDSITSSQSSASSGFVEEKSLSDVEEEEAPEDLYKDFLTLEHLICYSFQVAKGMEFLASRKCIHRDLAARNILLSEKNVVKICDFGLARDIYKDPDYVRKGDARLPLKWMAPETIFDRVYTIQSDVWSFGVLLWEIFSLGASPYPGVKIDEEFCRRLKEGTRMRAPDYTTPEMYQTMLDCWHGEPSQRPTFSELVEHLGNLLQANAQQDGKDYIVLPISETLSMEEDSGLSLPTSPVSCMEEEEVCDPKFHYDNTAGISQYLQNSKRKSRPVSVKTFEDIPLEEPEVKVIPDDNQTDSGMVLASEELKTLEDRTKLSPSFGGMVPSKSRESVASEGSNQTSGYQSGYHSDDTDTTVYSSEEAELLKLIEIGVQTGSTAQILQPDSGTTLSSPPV
T1 sequence (P17948 27-1338): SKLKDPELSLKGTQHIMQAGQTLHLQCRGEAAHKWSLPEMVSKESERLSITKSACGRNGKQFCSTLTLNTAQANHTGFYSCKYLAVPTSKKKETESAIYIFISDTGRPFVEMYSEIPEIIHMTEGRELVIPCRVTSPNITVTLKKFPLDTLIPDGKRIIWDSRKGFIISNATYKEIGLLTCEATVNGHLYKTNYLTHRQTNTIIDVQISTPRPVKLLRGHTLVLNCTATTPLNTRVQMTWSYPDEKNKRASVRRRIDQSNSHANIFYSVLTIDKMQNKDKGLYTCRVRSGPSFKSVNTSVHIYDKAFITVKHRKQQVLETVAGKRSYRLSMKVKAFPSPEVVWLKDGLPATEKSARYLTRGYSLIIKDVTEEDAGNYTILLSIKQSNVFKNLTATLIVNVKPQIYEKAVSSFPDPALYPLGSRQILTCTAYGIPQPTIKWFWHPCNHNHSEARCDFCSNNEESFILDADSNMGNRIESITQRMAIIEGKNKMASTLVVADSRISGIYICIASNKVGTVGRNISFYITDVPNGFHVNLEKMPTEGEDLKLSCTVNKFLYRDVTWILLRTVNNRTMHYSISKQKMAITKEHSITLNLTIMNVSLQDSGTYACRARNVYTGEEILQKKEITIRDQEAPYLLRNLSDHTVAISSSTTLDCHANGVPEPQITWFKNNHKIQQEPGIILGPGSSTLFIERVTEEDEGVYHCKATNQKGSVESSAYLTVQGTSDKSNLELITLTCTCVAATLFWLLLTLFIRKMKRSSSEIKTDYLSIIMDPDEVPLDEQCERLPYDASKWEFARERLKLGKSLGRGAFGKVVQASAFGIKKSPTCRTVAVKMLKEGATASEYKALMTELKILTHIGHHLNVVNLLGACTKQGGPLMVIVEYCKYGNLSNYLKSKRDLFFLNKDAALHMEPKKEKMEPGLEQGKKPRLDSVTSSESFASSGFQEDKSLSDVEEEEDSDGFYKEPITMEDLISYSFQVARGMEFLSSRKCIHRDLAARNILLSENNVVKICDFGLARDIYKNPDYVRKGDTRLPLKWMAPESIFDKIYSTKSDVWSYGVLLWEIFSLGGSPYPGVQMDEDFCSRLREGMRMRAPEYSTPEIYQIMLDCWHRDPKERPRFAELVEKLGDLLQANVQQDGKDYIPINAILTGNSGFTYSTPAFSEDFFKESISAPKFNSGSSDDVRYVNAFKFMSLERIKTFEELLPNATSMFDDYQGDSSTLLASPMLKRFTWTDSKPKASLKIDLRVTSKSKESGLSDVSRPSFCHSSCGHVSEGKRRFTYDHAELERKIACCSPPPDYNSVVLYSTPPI

For “CH3(CH2)14C(O)— VVAAKKKGKLTWQELYQLKYKGI-NH2 (Palmitoyl-VVAAKKKGKLTWQELYQLKYKGI-NH2; SMILES CCCCCCCCCCCCCCCC(=O)N[C@H](C(=O)N[C@H](C(=O)N[C@@H](C)C(=O)N[C@@H](C)C(=O)N[C@@H](CCCCN)C(=O)N[C@@H](CCCCN)C(=O)N[C@@H](CCCCN)C(=O)NCC(=O)N[C@@H](CCCCN)C(=O)N[C@@H](CC(C)C)C(=O)N[C@H](C(=O)N[C@@H](Cc1c[nH]c2ccccc12)C(=O)N[C@@H](CCC(N)=O)C(=O)N[C@@H](CCC(=O)O)C(=O)N[C@@H](CC(C)C)C(=O)N[C@@H](Cc1ccc(O)cc1)C(=O)N[C@@H](CCC(N)=O)C(=O)N[C@@H](CC(C)C)C(=O)N[C@@H](CCCCN)C(=O)N[C@@H](Cc1ccc(O)cc1)C(=O)N[C@@H](CCCCN)C(=O)NCC(=O)N[C@H](C(N)=O)[C@@H](C)CC)[C@@H](C)O)C(C)C)C(C)C) [VEGF-PA]”, which “time of stimulation at which phosphorylated VEGFR1 begins to decrease after initial rise” value [1] is on record?
Its value is 10 min.

And the “time of stimulation at which phosphorylated VEGFR2 begins to decrease after initial rise” value ([2]; HUVEC time-course 0-60 minutes, falls below untreated baseline)?
Its value is 10 min.

And the “VEGFR2 phosphorylation level relative to untreated control” value ([2]; HUVEC, 1 μM, 2 minutes exposure, untreated control 1.000±0.109)?
The value was 1.581±0.050.

And the “proliferation (cell number relative to unsupplemented growth media)” value (HUVECs [3])?
The value was 137.0%±2.4%.

And the “reduction in scratch wound size (denuded area)” value (HUVECs [4])?
Its value is 68.7%±4.2%.

And the “LDPI perfusion ratio (ischemic/non-ischemic limb)” value (ischemic hind-limb; 14 days after induction of ischemia)?
Its value is 0.76±0.05.

And the “limb motor function score” value (ischemic hind-limb; day 21)?
The value was 3.89±0.12.

And the “tissue (limb) salvage score” value (ischemic hind-limb; day 21)?
Its value is 4.21±0.21.

And the “LDPI perfusion ratio (ischemic/non-ischemic limb)” value (ischemic hind-limb; day 28)?
The value was 0.72±0.05.

What about the “Rota Rod walking time prior to failure” value (ischemic hind-limb; day 28, saline 90.4 seconds) of the same substance?
The value was 150.5 ± 9.5 s.

What about the “limb motor function score” value (ischemic hind-limb; day 28) of the same substance?
The value was 4.21±0.16.

And the “tissue (limb) salvage score” value (ischemic hind-limb; day 28)?
Its value is 4.21±0.21.

What about the “effect on the number of CD31+/smooth muscle actin+ arterioles” value (ischemic hind-limb; tissue harvested at day 28) of the same substance?
Its value is “no effect”.

What about the “number of CD31+ capillaries in ischemic limb muscle” value (ischemic hind-limb; tissue harvested at day 28, saline 893/mm2) of the same substance?
Its value is 1582±76 /mm2.
